The values that follow come from ChEMBL document CHEMBL5532666 (J Med Chem, 2024).

Activity calls are given as the source filed them. The calls are words filed in the database; no cut-off is given here.

Series [1] concerns the target T1, LIM domain kinase 2 (Homo sapiens, UniProt P53671). Kind of series: Binding affinity to LIMK2 (unknown origin) expressed in intact HEK293T cells incubated for 2 hrs by NanoBRET assay. The format is cell-based.
Target sequence in this assay (P53671 whole entry, the tested form may be a part): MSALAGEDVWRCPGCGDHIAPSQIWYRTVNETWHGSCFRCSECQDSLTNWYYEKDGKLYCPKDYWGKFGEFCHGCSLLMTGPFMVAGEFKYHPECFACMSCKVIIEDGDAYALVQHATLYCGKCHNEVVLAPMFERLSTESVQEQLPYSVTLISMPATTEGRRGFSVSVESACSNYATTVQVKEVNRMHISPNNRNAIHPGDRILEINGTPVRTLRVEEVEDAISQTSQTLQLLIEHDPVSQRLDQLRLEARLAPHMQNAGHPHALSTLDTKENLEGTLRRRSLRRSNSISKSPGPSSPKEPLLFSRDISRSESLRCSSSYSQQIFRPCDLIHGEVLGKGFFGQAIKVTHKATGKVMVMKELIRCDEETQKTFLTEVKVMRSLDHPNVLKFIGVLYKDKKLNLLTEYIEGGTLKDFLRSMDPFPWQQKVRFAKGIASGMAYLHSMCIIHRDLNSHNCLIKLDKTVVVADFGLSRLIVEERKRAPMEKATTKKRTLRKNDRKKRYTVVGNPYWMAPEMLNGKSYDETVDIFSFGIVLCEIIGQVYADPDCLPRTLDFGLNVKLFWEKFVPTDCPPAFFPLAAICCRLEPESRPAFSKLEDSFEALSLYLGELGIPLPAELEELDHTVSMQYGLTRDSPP
Series [2] has as its target T2, Serine/threonine-protein kinase 4 (Homo sapiens, UniProt Q13043).
T2 sequence (Q13043 whole entry): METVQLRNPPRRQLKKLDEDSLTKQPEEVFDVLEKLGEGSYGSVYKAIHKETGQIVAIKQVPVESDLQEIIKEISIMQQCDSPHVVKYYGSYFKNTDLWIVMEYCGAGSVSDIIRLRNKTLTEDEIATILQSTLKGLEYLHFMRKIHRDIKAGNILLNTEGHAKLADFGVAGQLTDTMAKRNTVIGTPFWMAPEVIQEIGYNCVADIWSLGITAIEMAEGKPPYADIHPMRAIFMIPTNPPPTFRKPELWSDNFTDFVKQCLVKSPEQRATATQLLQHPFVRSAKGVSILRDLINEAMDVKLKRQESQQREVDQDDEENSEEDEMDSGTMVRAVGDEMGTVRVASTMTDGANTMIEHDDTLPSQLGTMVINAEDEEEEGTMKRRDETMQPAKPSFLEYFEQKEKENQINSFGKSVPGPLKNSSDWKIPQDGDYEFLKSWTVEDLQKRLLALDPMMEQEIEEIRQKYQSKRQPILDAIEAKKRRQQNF
Put plainly: Binding affinity to N-terminal full length human MST1 expressed in intact HEK293T cells incubated for 2 hrs by NanoBRET assay. In kind it is cell-based.

For series [3], the target named is Serine/threonine-protein kinase 24 (Homo sapiens, UniProt Q9Y6E0). Kind of series: Binding affinity to C-terminal full length human MST3 expressed in permeabilized HEK293T cells incubated for 2 hrs by NanoBRET assay. The format is cell-based.
Series [4] concerns the target Dual specificity protein kinase CLK1 (Homo sapiens) (UniProt P49759). Kind of series: Binding affinity to CLK1 (unknown origin) assessed as thermal stabilization by measuring change in melting temperature by DSF analysis.
For series [5], the target named is T1, LIM domain kinase 2. Put plainly: Inhibition of wildtype LIMK2 (unknown origin) assessed as residual activity at 1 uM relative to control.
Target sequence in this assay (P53671 whole entry, looked up, the tested form may be a part): as the sequence (P53671 whole entry, the tested form may be a part) above
Series [6] concerns the target T3, Serine/threonine-protein kinase RIO1 (Homo sapiens) (UniProt Q9BRS2).
T3 sequence (whole entry): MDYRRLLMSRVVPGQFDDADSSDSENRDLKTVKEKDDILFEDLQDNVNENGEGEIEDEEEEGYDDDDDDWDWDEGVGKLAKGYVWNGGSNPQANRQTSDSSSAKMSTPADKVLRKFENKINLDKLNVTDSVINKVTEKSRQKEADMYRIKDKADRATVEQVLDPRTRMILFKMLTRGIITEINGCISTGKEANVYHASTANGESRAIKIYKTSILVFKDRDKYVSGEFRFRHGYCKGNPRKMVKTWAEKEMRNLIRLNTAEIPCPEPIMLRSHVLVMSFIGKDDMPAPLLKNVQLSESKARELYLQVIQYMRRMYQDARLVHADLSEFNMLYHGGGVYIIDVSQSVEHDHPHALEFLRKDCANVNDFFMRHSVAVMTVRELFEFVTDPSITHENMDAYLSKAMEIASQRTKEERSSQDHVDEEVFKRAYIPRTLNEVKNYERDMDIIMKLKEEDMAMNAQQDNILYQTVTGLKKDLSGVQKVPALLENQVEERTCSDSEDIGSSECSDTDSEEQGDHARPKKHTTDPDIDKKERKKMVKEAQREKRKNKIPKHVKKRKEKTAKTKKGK
Kind of series: Binding affinity to RIOK1 (unknown origin) assessed as thermal stabilization by measuring change in melting temperature by DSF analysis.

The target of series [7] is T4, Serine/threonine-protein kinase 26 (Homo sapiens, UniProt Q9P289). Put plainly: Binding affinity to N-terminal 6His-tagged TEV fused MST4 (unknown origin) expressed in Escherichia coli BL21 (DE3) cells assessed as offset in binding entropy change by ITC analysis.
Target sequence in this assay (Q9P289 2-416 limits assumed): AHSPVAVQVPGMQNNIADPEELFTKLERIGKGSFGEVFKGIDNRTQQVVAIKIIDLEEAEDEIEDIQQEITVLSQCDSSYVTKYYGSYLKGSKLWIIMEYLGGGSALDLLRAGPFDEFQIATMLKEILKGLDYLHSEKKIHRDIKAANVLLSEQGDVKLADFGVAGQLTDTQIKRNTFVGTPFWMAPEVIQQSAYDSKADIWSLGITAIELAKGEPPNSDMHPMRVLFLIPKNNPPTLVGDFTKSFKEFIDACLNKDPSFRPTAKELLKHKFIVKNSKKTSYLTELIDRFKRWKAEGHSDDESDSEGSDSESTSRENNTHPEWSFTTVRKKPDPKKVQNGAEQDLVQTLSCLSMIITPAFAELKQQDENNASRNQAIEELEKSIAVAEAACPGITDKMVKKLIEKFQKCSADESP
Series [8] has as its target T4, Serine/threonine-protein kinase 26. Kind of series: Binding affinity to C-terminal full length human MST4 expressed in permeabilized HEK293T cells incubated for 2 hrs by NanoBRET assay. In kind it is cell-based.
Target sequence in this assay (Q9P289 whole entry, the tested form may be a part): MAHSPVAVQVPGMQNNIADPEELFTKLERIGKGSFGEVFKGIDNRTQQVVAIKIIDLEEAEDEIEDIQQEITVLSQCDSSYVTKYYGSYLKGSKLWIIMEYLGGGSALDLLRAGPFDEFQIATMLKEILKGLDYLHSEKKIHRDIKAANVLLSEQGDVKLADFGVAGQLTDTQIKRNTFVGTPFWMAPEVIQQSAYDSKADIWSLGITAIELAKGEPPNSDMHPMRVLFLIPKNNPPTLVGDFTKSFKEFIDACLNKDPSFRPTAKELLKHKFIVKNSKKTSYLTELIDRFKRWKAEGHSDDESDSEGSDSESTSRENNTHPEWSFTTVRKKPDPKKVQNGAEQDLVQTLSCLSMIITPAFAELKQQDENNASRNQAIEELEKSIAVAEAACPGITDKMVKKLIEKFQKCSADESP
The target in series [9] is Glycogen synthase kinase-3 beta (Homo sapiens) (UniProt P49841). Kind of series: Binding affinity to GSK3B (unknown origin) assessed as thermal stabilization by measuring change in melting temperature by DSF analysis.
Series [10] has as its target T5, Serine/threonine-protein kinase 3 (Homo sapiens) (UniProt Q13188).
T5 sequence (whole entry): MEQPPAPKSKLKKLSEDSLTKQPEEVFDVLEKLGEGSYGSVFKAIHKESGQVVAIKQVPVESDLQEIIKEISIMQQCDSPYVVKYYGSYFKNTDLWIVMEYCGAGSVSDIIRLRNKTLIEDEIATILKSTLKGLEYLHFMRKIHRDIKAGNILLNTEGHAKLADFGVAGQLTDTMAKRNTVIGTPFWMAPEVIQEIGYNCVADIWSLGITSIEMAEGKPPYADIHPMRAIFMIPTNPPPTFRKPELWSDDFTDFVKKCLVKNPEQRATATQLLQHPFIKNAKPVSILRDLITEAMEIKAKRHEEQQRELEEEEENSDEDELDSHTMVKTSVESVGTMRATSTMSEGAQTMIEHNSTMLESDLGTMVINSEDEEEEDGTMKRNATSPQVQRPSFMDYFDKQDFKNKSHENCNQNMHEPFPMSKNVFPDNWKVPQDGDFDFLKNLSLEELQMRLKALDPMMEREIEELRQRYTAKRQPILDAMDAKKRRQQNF
The conditions noted are these: dose 10.0 µM.
Description: Binding affinity to recombinant MST2 (unknown origin) kinase domain assessed as thermal stabilization by measuring change in melting temperature at 10 uM by DSF analysis

The target in series [11] is T4, Serine/threonine-protein kinase 26. Put plainly: Binding affinity to C-terminal full length human MST4 expressed in intact HEK293T cells incubated for 2 hrs by NanoBRET assay. The format is cell-based.
Target sequence in this assay (Q9P289 whole entry, the tested form may be a part): as the sequence (Q9P289 whole entry, the tested form may be a part) above
A short description of series [12]: Toxicity in human HCT-116 cells expressing FUCCI assessed as reduction in cell viability at 1 uM measured after 48 hrs by Hoechst33342 staining based analysis. The conditions noted are these: hct-116, 48 h.
A short description of series [13]: Toxicity in human HCT-116 cells expressing FUCCI assessed as normalized cell count at 10 uM measured after 72 hrs by Hoechst33342 staining based analysis relative to control. To be noted: read-out: Activity.
A short description of series [14]: Toxicity in human HCT-116 cells expressing FUCCI assessed as cells with healthy nuclei at 1 to 10 uM measured after 24 hrs by Hoechst33342 staining based analysis relative to control. In kind it is cell-based. To be noted: hct-116, 24 h, dose 1-10 µM.
Series [15] is described as follows: Toxicity in human HCT-116 cells expressing FUCCI assessed as reduction in normalized cell count at 10 uM measured upto 80 hrs by Hoechst33342 staining based analysis. To be noted: hct-116, 80 h.
Series [16] addresses T6, Serine/threonine-protein kinase 3 (Homo sapiens, UniProt Q13188).
T6 sequence (Q13188 whole entry): T5 sequence (whole entry)
Put plainly: Binding affinity to N-terminal full length human MST2 expressed in intact HEK293T cells incubated for 2 hrs by NanoBRET assay. In kind it is cell-based.

Series [17] deals with T7, Serine/threonine-protein kinase 4 (Homo sapiens) (UniProt Q13043).
T7 sequence (whole entry): T2 sequence (Q13043 whole entry)
The conditions noted are these: dose 10.0 µM.
Description: Binding affinity to recombinant MST1 (unknown origin) kinase domain assessed as thermal stabilization by measuring change in melting temperature at 10 uM by DSF analysis

The target of another series is LIM domain kinase 1 (Homo sapiens, UniProt P53667). Put plainly: Inhibition of wildtype LIMK1 (unknown origin) assessed as residual activity at 1 uM relative to control.
Chain of LIM domain kinase 1 (P53667 whole entry, looked up, the tested form may be a part): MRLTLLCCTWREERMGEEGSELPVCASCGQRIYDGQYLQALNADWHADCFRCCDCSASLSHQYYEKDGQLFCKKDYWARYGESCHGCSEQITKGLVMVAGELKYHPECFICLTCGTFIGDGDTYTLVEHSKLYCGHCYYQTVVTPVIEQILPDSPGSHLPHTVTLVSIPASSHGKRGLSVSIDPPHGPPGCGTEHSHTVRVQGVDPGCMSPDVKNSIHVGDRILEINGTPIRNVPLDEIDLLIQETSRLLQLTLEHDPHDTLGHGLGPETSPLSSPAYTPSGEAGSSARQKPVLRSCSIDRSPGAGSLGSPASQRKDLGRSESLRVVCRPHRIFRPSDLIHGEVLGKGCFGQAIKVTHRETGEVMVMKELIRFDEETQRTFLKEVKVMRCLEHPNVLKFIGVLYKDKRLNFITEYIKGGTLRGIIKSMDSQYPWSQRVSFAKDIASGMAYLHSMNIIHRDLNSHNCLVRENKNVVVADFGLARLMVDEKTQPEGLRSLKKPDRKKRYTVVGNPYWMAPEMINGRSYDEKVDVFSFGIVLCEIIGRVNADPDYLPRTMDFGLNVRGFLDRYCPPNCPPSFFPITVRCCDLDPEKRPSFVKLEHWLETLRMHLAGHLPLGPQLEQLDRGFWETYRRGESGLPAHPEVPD

Chain of Serine/threonine-protein kinase 24 (Q9Y6E0 whole entry): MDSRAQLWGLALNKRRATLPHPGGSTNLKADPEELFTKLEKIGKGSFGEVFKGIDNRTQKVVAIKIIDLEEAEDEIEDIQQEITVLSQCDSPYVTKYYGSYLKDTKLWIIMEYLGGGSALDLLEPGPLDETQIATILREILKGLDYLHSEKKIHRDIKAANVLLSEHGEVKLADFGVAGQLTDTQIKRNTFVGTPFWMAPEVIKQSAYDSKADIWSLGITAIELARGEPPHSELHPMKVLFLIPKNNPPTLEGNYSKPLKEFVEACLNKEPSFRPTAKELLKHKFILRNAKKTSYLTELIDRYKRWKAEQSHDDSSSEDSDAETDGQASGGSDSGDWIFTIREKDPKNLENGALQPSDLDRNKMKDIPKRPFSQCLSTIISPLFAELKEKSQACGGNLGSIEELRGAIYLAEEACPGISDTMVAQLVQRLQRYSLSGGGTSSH
Chain of Glycogen synthase kinase-3 beta (Homo sapiens) (P49841 whole entry, looked up): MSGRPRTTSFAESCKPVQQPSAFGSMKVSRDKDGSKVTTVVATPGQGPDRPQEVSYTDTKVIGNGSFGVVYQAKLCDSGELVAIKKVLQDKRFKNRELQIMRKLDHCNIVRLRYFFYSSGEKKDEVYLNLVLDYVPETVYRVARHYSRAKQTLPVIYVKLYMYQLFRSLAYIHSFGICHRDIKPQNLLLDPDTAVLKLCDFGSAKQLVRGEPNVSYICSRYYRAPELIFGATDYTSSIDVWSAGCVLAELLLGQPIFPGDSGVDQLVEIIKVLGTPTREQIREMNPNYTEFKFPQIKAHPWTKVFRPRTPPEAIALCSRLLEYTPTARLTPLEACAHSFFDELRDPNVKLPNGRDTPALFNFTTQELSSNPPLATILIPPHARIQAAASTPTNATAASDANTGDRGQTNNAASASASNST
Chain of Dual specificity protein kinase CLK1 (Homo sapiens) (P49759 whole entry, looked up, the tested form may be a part): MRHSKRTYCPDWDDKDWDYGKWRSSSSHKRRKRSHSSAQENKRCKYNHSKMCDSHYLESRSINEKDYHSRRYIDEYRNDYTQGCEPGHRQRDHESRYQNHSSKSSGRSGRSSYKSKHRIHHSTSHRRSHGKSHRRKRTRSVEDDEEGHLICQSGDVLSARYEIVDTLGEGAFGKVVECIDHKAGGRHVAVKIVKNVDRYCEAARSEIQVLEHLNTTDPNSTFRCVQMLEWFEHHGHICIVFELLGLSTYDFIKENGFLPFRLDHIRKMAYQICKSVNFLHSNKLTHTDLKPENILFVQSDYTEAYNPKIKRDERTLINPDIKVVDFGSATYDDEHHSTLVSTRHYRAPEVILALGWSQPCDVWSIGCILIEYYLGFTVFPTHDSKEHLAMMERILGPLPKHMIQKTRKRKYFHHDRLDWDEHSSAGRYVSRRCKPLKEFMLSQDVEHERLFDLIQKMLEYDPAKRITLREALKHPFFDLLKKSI

On to `O=C1NCCCCCNc2nc(c3ccccc3n2)Nc2cc1[nH]n2`, for which the EC50 was 1780 nM at LIM domain kinase 2 [1]; more than 50000 nM in series [2]; 80 nM in [3]; 360 nM in series [8]; 1430 nM in [11]; more than 50000 nM in series [16]. Moreover, the ΔTm in series [4] stood at 5.1 °C; in series [6], 5.1 °C; in series [9], 5.1 °C; in series [10], 1.1 °C; in series [17], 1.4 °C. For the same molecule, the Activity on LIM domain kinase 2 [5] is 38.2%; in [12], “Non-Toxic”; in [14] it was 80%; in series [15] it was “Toxic”; on LIM domain kinase 1, 36.6%. Moreover, in series [7], the outcome was Active. Also, the viability at 72 h, 10 µM in series [13] is less than 30%.
